# In patent US12384780B2, “PARP1 inhibitors and uses thereof” (XinThera, Inc., priority 2022, dated 2025):
# Legend:
# [1] = test system: MDA-MB-436 (mutated BRCA1) cells; test: Cell growth inhibition assay (CellTiter-Glo), MDA-MB-436; type: cell-based; details: Homo sapiens, MDA-MB-436, 168 h, 500 cells/well, 7 days, CellTiter Glo 2.0; read-out: MDA-MB-436 pEC50 (converted)
# Protocol: (§1) Cell proliferation was measured through the cell viability assay using DLD-1 BRCA2(−/−) and parental isogenic pair and MDA-MB-436 (mutated BRCA1) cell lines. The CellTiter-Glo (CTG) based cell viability assay is designed to determine the number of viable cells in the culture because of compound effect, by quantifying ATP, which indicates the presence of metabolically active cells.
# (§2) DLD-1 BRCA2(−/−) and parental isogenic pair were cultured in RPMI 1640 supplemented with […] (FBS), and […] cells were cultured in DMEM supplemented with 10% FBS. Both were cultured at 37° C. with […]. Invention compounds were distributed to the 384 well plate (Corning, 3764) using Echo acoustic liquid handler to form a 1:3 serially diluted final concentration with top dose of 10 or 30 μM. The cells were seeded into the plate in the density of 50 cells/well (DLD-1 parental), 200 cells/well (DLD-1 BRCA2−/−), or 500 cells/well (MDA-MB-436). After a short spun, the cells were cultured in a well moisturized incubator at 37° C. with 5% CO2 for 7 days without disturbance. The cell viability was measured by CellTiter Glo 2.0 assay kit (Promega, G9243), and growth inhibition rate was calculated and plotted against final compound concentration, and the data were fitted in Xfit to generate IC50 values.
# PARP2 = target: T1, PARP2 (Homo sapiens, UniProt Q9UGN5); test: Biochemical fluorescent polarization (FP) assay, displacement of PARPi-FL, PARP2; type: binding; details: 20 nM protein, 3 nM PARPi-FL, 4 h at room temperature; read-out: FP PARP2 pIC50 (converted)
# T1 construct: made in house
# T1 sequence (Q9UGN5 whole entry): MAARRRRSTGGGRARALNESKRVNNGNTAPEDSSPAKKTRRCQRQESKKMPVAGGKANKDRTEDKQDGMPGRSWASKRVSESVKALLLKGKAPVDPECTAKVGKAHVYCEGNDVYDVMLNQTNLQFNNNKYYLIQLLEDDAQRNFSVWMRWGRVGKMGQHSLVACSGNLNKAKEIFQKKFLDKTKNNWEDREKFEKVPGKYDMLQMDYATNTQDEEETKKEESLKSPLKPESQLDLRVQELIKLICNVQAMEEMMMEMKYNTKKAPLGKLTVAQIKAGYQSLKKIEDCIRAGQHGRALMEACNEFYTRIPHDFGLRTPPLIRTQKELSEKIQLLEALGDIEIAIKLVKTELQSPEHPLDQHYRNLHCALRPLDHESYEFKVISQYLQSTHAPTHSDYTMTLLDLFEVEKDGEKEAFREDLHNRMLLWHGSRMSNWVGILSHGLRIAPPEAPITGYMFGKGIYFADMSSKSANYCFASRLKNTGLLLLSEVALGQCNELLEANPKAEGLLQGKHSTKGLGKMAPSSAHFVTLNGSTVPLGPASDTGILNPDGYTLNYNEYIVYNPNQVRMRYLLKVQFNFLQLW
# Protocol: (§3) Compounds were characterized using an assay measuring the displacement of a commercially available fluorescently labeled PARP 1/2 inhibitor (PARPi-FL, Tocris Biosciences, #6461) as exemplified in assays performed in WO2014/064149 and WO2021/013735A1. The assay was performed utilizing the following method: Compounds were dissolved in DMSO an Echo550 liquid handler was utilized to make serial dilations in the desired concentration range in Optiplate-384F plates. 100% DMSO was used for the high (with protein) and low (without protein) control samples. 20 nL of compound or DMSO alone was added to individual assay plate wells. PARP1 and PARP2 protein were expressed, purified, and diluted in assay buffer containing 50 mM Tris pH 8.0, 0.001% Triton X-100, 10 mM MgCl2, 150 mM NaCl to a final concentration of 20 nM. The PARPi-FL was then added at a final concentration of 3 nM. The assay plate was centrifuged at 1000 rpm for 1 min and incubated for 4 h at room temperature. […] [formula]
# PARP1 = target: T2, PARP1 (Homo sapiens, UniProt P09874); test: Biochemical fluorescent polarization (FP) assay, displacement of PARPi-FL, PARP1; type: binding; details: 20 nM protein, 3 nM PARPi-FL, 4 h at room temperature; read-out: FP PARP1 pIC50 (converted)
# T2 construct: made in house
# T2 sequence (P09874 whole entry): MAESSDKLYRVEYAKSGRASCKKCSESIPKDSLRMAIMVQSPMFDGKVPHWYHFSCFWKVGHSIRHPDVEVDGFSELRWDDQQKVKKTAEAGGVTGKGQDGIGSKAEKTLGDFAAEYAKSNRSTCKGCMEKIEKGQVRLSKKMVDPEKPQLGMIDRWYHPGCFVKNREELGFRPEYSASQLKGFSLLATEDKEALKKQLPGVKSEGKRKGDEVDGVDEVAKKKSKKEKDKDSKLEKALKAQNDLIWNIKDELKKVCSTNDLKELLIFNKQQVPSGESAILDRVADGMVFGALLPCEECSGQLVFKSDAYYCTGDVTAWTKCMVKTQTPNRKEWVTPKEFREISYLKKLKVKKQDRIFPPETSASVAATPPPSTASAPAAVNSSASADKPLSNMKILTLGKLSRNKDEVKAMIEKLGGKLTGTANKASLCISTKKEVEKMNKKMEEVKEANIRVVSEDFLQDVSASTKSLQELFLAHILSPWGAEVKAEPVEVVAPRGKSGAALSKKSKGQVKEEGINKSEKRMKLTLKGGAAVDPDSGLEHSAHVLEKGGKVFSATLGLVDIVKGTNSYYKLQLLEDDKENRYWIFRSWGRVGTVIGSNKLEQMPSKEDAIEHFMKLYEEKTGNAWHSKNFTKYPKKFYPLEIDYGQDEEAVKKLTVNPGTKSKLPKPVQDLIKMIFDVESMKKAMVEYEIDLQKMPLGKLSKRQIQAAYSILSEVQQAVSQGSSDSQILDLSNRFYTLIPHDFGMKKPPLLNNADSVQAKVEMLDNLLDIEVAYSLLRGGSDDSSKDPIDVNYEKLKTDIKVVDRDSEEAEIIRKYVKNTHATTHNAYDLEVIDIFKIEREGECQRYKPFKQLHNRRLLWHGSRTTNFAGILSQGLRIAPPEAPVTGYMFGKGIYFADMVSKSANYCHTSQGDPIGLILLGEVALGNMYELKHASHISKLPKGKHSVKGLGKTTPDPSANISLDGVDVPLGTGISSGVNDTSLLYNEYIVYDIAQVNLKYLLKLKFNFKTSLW
# Protocol: as §3
# DLD-1 BRCA2(−/−) cells = test: Cell growth inhibition assay (CellTiter-Glo), DLD-1 BRCA2(−/−); type: cell-based; details: Homo sapiens, DLD-1, 168 h; 200 cells/well, 7 days, CellTiter Glo 2.0; read-out: DLD-1 BRCA2(−/−) pEC50 (converted)
# Protocol: as §1, §2
compound,measurement,setting,value
"CCc1cc2ncc(CN3CCN(c4ccc(C#N)nc4)[C@H]4C[C@H]43)cc2[nH]c1=O (single isomer, unassigned) [Example 14]",EC50,[1],50.1 nM
same,IC50,PARP2,6310 nM
same,IC50,PARP1,5.01 nM
same,EC50,DLD-1 BRCA2(−/−) cells,63.1 nM
"CCc1cc2ncc(CN3CCN(c4ccc(C#N)nc4)[C@@H]4C[C@@H]43)cc2[nH]c1=O (single isomer, unassigned) [Example 15]",EC50,[1],5.01 nM
same,IC50,PARP2,10000 nM
same,IC50,PARP1,5.01 nM
same,EC50,DLD-1 BRCA2(−/−) cells,7.94 nM
"Cc1cc2ncc(CN3CCN(c4ccc(C#N)cn4)[C@H]4C[C@H]43)cc2[nH]c1=O (single isomer, unassigned) [Example 19]",EC50,[1],158 nM
same,IC50,PARP2,> 100000 nM
same,IC50,PARP1,6.31 nM
same,EC50,DLD-1 BRCA2(−/−) cells,200 nM
"N#Cc1ccc(N2CCN(Cc3cnc4cc(C5CC5)c(=O)[nH]c4c3)[C@H]3C[C@H]32)nc1 (single isomer, unassigned) [Example 20]",EC50,[1],39.8 nM
same,IC50,PARP2,2510 nM
same,IC50,PARP1,5.01 nM
same,EC50,DLD-1 BRCA2(−/−) cells,50.1 nM
"Cc1cc2ncc([C@@H](C)N3CCN(c4ccc(C#N)cn4)[C@H](C)C3)cc2[nH]c1=O (single isomer, unassigned) [Example 28, rel-6-[(2R)-2-methyl-4-[(1R*)-1-(7-methyl-6-oxo-5H-1,5-naphthyridin-3-yl)ethyl]piperazin-1-yl]pyridine-3-carbonitrile]",EC50,[1],63.1 nM
same,IC50,PARP2,> 100000 nM
same,IC50,PARP1,> 100 nM
same,EC50,DLD-1 BRCA2(−/−) cells,63.1 nM
"Cc1cc2ncc([C@H](C)N3CCN(c4ccc(C#N)cn4)[C@H](C)C3)cc2[nH]c1=O (single isomer, unassigned) [Example 29]",EC50,[1],79.4 nM
same,IC50,PARP2,> 100000 nM
same,IC50,PARP1,6.31 nM
same,EC50,DLD-1 BRCA2(−/−) cells,63.1 nM
"Cc1cc2ncc([C@H](C)N3CCN(c4ccc(C#N)cn4)CC3)cc2[nH]c1=O (single isomer, unassigned) [Example 32]",EC50,[1],7.94 nM
same,IC50,PARP2,> 100000 nM
same,IC50,PARP1,3.98 nM
same,EC50,DLD-1 BRCA2(−/−) cells,12.6 nM
"Cc1cc2ncc([C@@H](C)N3CCN(c4ccc(C#N)cn4)CC3)cc2[nH]c1=O (single isomer, unassigned) [Example 33]",EC50,[1],2.51 nM
same,IC50,PARP2,6310 nM
same,IC50,PARP1,2.51 nM
same,EC50,DLD-1 BRCA2(−/−) cells,3.16 nM
"N#Cc1ccc(N2CCN(Cc3cnc4cc(C5CCCO5)c(=O)[nH]c4c3)CC2)nc1 (single isomer, unassigned) [Example 68, 6-(4-{[6-oxo-7-(oxolan-2-yl)-5H-1,5-naphthyridin-3-yl]methyl}piperazin-1-yl)pyridine-3-carbonitrile]",EC50,[1],25.1 nM
same,IC50,PARP2,79400 nM
same,IC50,PARP1,12.6 nM
same,EC50,DLD-1 BRCA2(−/−) cells,39.8 nM
"C#Cc1cc2ncc(CN3CCN(c4ccc(C#N)nc4)CC3)cc2[nH]c1=O [Example 1, 5-{4-[(7-ethynyl-6-oxo-5H-1,5-naphthyridin-3-yl)methyl]piperazin-1-yl}pyridine-2-carbonitrile]",EC50,[1],63.1 nM
same,IC50,PARP1,15.8 nM
same,EC50,DLD-1 BRCA2(−/−) cells,63.1 nM
CCc1cc2ncc(CN3CCN(c4ccc(F)cn4)CC3)cc2[nH]c1=O [Example 4],EC50,[1],2 nM
same,EC50,DLD-1 BRCA2(−/−) cells,2 nM
"CCc1nc2cc(F)c(CN3CCN(c4ccc(C#N)cn4)CC3)cc2[nH]c1=O [Example 12, 6-{4-[(2-ethyl-7-fluoro-3-oxo-4H-quinoxalin-6-yl)methyl]piperazin-1-yl}pyridine-3-carbonitrile]",EC50,[1],10 nM
same,IC50,PARP1,7.94 nM
same,EC50,DLD-1 BRCA2(−/−) cells,10 nM
N#Cc1ccc(N2CCN(Cc3cnc4cc(C5CC5)c(=O)[nH]c4c3)CC2)nc1 [Example 17],EC50,[1],2 nM
same,EC50,DLD-1 BRCA2(−/−) cells,2.51 nM
CCc1cc2ncc(CN3CCN(c4ccc(C#N)cc4F)CC3)cc2[nH]c1=O [Example 45],EC50,[1],1 nM
same,EC50,DLD-1 BRCA2(−/−) cells,1.26 nM
N#Cc1ccc(N2CCN(Cc3cnc4cc(C5CC5)c(=O)[nH]c4c3)CC2)c(F)c1 [Example 46],EC50,[1],1.58 nM
same,IC50,PARP1,10 nM
same,EC50,DLD-1 BRCA2(−/−) cells,2 nM
"O=c1[nH]c2cc(CN3CCN(c4ccc(F)cn4)CC3)cnc2cc1Cl [Example 47, 3-chloro-7-{[4-(5-fluoropyridin-2-yl)piperazin-1-yl]methyl}-1H-1,5-naphthyridin-2-one]",EC50,[1],7.94 nM
same,IC50,PARP1,10 nM
same,EC50,DLD-1 BRCA2(−/−) cells,2.51 nM
"Cc1nc2c(F)cc(CN3CCN(c4ccc(C#N)cn4)CC3)cc2[nH]c1=O [Example 49, 6-{4-[(8-fluoro-2-methyl-3-oxo-4H-quinoxalin-6-yl)methyl]piperazin-1-yl}pyridine-3-carbonitrile]",EC50,[1],12.6 nM
same,IC50,PARP1,10 nM
same,EC50,DLD-1 BRCA2(−/−) cells,10 nM
Cc1cc2ncc(CN3CCN(c4ccc(C#N)cc4C#N)CC3)cc2[nH]c1=O [Example 50],EC50,[1],1.58 nM
same,IC50,PARP1,25.1 nM
same,EC50,DLD-1 BRCA2(−/−) cells,2 nM
Cc1cc2ncc(CN3CCN(c4ccc(Cl)cc4C#N)CC3)cc2[nH]c1=O [Example 51],EC50,[1],2.51 nM
same,IC50,PARP1,20 nM
same,EC50,DLD-1 BRCA2(−/−) cells,3.98 nM
Cc1cc2ncc(CN3CCN(c4cc(F)c(F)cc4C#N)CC3)cc2[nH]c1=O [Example 53],EC50,[1],5.01 nM
same,IC50,PARP1,12.6 nM
same,EC50,DLD-1 BRCA2(−/−) cells,6.31 nM
CCc1cc2ncc(CN3CCN(c4ncc(C#N)cc4F)CC3)cc2[nH]c1=O [Example 54],EC50,[1],79.4 nM
same,IC50,PARP1,63.1 nM
same,EC50,DLD-1 BRCA2(−/−) cells,63.1 nM
CCc1cc2ncc(CN3CCN(c4ncc(F)cc4C#N)CC3)cc2[nH]c1=O [Example 56],EC50,[1],63.1 nM
same,IC50,PARP1,15.8 nM
same,EC50,DLD-1 BRCA2(−/−) cells,100 nM
N#Cc1ccc(N2CCN(Cc3cnc4cc(C(F)F)c(=O)[nH]c4c3)CC2)c(F)n1 [Example 62],EC50,[1],1.26 nM
same,IC50,PARP1,63.1 nM
same,EC50,DLD-1 BRCA2(−/−) cells,1.58 nM
CCc1cc2ncc(CN3CCN(c4cnc(Cl)cc4C#N)CC3)cc2[nH]c1=O [Example 65],EC50,[1],2.51 nM
same,EC50,DLD-1 BRCA2(−/−) cells,3.16 nM
Cc1nc2ccc(CN3CCN(c4ccc(C#N)cn4)CC3)c(F)c2[nH]c1=O [Example 70],EC50,[1],31.6 nM
same,IC50,PARP1,10 nM
same,EC50,DLD-1 BRCA2(−/−) cells,25.1 nM
"Cc1cc2ccc(CN3CCN(c4ccc(C#N)cn4)CC3)c(F)c2[nH]c1=O [Example 71, 6-{4-[(8-fluoro-3-methyl-2-oxo-1H-quinolin-7-yl)methyl]piperazin-1-yl}pyridine-3-carbonitrile]",EC50,[1],15.8 nM
same,IC50,PARP1,10 nM
same,EC50,DLD-1 BRCA2(−/−) cells,12.6 nM
Cc1nc2c(F)c(F)c(CN3CCN(c4ccc(C#N)cn4)CC3)cc2[nH]c1=O [Example 72],EC50,[1],39.8 nM
same,IC50,PARP1,15.8 nM
same,EC50,DLD-1 BRCA2(−/−) cells,63.1 nM
Cc1nc2ccc(CN3CCN(c4ccc(C#N)nc4Cl)CC3)c(F)c2[nH]c1=O [Example 73],EC50,[1],15.8 nM
same,IC50,PARP1,25.1 nM
same,EC50,DLD-1 BRCA2(−/−) cells,20 nM
Cc1nc2ccc(CN3CCN(c4ccc(C#N)nc4F)CC3)c(F)c2[nH]c1=O [Example 74],EC50,[1],31.6 nM
same,IC50,PARP1,15.8 nM
same,EC50,DLD-1 BRCA2(−/−) cells,20 nM
Cc1cc(C#N)ccc1N1CCN(Cc2cnc3cc(C(F)F)c(=O)[nH]c3c2)CC1 [Example 75],EC50,[1],0.501 nM
same,IC50,PARP1,25.1 nM
same,EC50,DLD-1 BRCA2(−/−) cells,0.631 nM
N#Cc1ccc(N2CCN(Cc3cnc4cc(Cl)c(=O)[nH]c4c3)CC2)c(F)c1 [Example 76],EC50,[1],5.01 nM
same,IC50,PARP1,63.1 nM
same,EC50,DLD-1 BRCA2(−/−) cells,5.01 nM
N#Cc1ccc(N2CCN(Cc3cnc4cc(C(F)F)c(=O)[nH]c4c3)CC2)c(C(F)F)c1 [Example 80],EC50,[1],1 nM
same,IC50,PARP1,15.8 nM
same,EC50,DLD-1 BRCA2(−/−) cells,1.26 nM
N#Cc1ccc(N2CCN(Cc3cnc4cc(C(F)F)c(=O)[nH]c4c3)CC2)c(Cl)n1 [Example 81],EC50,[1],0.631 nM
same,IC50,PARP1,10 nM
same,EC50,DLD-1 BRCA2(−/−) cells,0.631 nM
"Cc1c(C(F)F)c2ncc(CN3CCN(c4ccc(C#N)cn4)CC3)cc2[nH]c1=O [Example 82, 6-(4-((8-(difluoromethyl)-7-methyl-6-oxo-5,6-dihydro-1,5-naphthyridin-3-yl)methyl)piperazin-1-yl)nicotinonitrile]",EC50,[1],39.8 nM
same,IC50,PARP1,31.6 nM
same,EC50,DLD-1 BRCA2(−/−) cells,100 nM
"N#Cc1ccc(N2CCN(Cc3ccc4cc(Cl)c(=O)[nH]c4c3F)CC2)nc1 [Example 83, 6-{4-[(3-chloro-8-fluoro-2-oxo-1H-quinolin-7-yl)methyl]piperazin-1-yl}pyridine-3-carbonitrile]",EC50,[1],6.31 nM
same,IC50,PARP1,10 nM
same,EC50,DLD-1 BRCA2(−/−) cells,10 nM
